Measurements as given in patent US4985445A, “Cancer cell metastasis inhibitors and novel compounds” (Meiji Seika Kaisha, Ltd., priority 1988, dated 1991).

Experiments:
[1] = Acute toxicity (LD50) by mice; details: mouse, in vivo, ip
[2] = test system: murine tumor cell line L 929; test: Cytotoxic activity against L 929 (growth observed with inverted microscope, 4 days); format: cell-based; details: for Growth: 4 days;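 for growth: + means growth and ± means marked inhibition and - means cell death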
Procedure: The B16 subline of high pulmonary metastatic potential and murine tumor cell line L 929 were cultured in DME medium supplemented with 10% bovine fetal serum at 37° C. in the presence of 5% CO2.
The B16 subline of high pulmanary metastatic potential and murine tumor cell line L 929 were cultured in DME medium supplemented with 10% bovine fetal serum at 37° C. in the presence of 5% CO2.

[3] = test system: B16 subline of high pulmonary metastatic potential; test: Inhibition of pulmonary metastasis of B16 subline pretreated with compound and injected i.v. into BDF1 mice; format: in vivo, murine; mouse BDF1; details: for Pulmonary Metastasis, Mouse 1 / Pulmonary Metastasis, Mouse 2 / Pulmonary Metastasis, Mouse 3 / Pulmonary Metastasis (Mean ± Standard Deviation): 14 days; for Pulmonary Metastasis (Mean ± Standard Deviation): None 32 ± 3.0; for Pulmonary Metastasis, %: None = 100

Structure (SMILES): OC[C@@H]1[C@@H](O)[C@H](O)[C@@H](O)CN1CCCc1ccccc1 [N-(3-Phenylpropyl)-1-deoxynojirimycin, N-(3-phenylpropyl)-1-deoxynojirimycin]
- LD50 [1]: > 500 mg/kg
- Cytotoxicity (in words) ([2]; L 929, even at a concentration as high as 100 μg/ml): did not show marked cytotoxicity
- Growth ([2]; Table 2, L 929, 0.5 μg/ml): +
- Growth ([2]; Table 2, L 929, 5 μg/ml): +
- Growth ([2]; Table 2, L 929, 50 μg/ml): +
- Growth ([2]; Table 2, L 929, 100 μg/ml): +
- Inhibition of metastasis to the lungs (in words) ([3]; B16 subline, BDF1 mice): shows decrease in the number of colonies
- Pulmonary Metastasis, Mouse 1 ([3]; Table 3, 30 μg/ml): 9 no.
- Pulmonary Metastasis, Mouse 2 ([3]; Table 3, 30 μg/ml): 22 no.
- Pulmonary Metastasis, Mouse 3 ([3]; Table 3, 30 μg/ml): 37 no.
- Pulmonary Metastasis (Mean ± Standard Deviation) ([3]; Table 3, 30 μg/ml): 22.7 ± 14.0 no.
- Pulmonary Metastasis, % ([3]; Table 3, 30 μg/ml): 68.8%
- Pulmonary Metastasis, Mouse 1 ([3]; Table 3, 100 μg/ml): 4 no.
- Pulmonary Metastasis, Mouse 2 ([3]; Table 3, 100 μg/ml): 4 no.
- Pulmonary Metastasis, Mouse 3 ([3]; Table 3, 100 μg/ml): 6 no.
- Pulmonary Metastasis (Mean ± Standard Deviation) ([3]; Table 3, 100 μg/ml): 4.7 ± 1.2 no.
- Pulmonary Metastasis, % ([3]; Table 3, 100 μg/ml): 14.7%
- Pulmonary Metastasis, Mouse 1 ([3]; Table 3, 300 μg/ml): 0 no.
- Pulmonary Metastasis, Mouse 2 ([3]; Table 3, 300 μg/ml): 0 no.
- Pulmonary Metastasis, Mouse 3 ([3]; Table 3, 300 μg/ml): 3 no.
- Pulmonary Metastasis (Mean ± Standard Deviation) ([3]; Table 3, 300 μg/ml): 1 ± 1.7 no.
- Pulmonary Metastasis, % ([3]; Table 3, 300 μg/ml): 3.1%
